Measured values published in patent US8513271B2, “Pyrimidine compounds as delta opioid receptor modulators” (Janssen Pharmaceutica, NV, priority 2009, dated 2013).
“And” between values parts separate entries of the source, which are not always exact repeats. Identical values can stand only once. Like-named read-outs stand apart in the source and are kept apart here.

How the values were obtained:
[1] = molecular target: T1, delta opioid receptor (Rattus norvegicus, UniProt P33533); assay: Rat brain delta opioid receptor binding assay; conditions: rat forebrain
T1 construct: the forebrains were homogenized in Tris buffer in a Teflon®-glass homogenizer; from tissue; host or cells: forebrain of male Wistar rats, particulate (membrane) preparation

[2] = molecular target: T2, mu opioid receptor (Rattus norvegicus, UniProt P33535); assay: Rat brain mu opioid receptor binding assay; conditions: rat forebrain, [3H]DAMGO ligand
T2 construct: the forebrains were homogenized in Tris buffer in a Teflon®-glass homogenizer; from tissue; host or cells: forebrain of male Wistar rats, particulate (membrane) preparation

[3] = molecular target: T3, delta opioid receptor (Mus musculus, UniProt P32300); assay: [35S]GTPγS binding assay in NG108-15 cell membranes (delta opioid functional assay), 200 nM screen; type: biochemical; conditions: for EC50 / GTPγS δ-opioid receptor Rel Efficacy: NG108-15 cell membranes; for EC50: averages if tested more than once; for GTPγS δ-opioid receptor Rel Efficacy: relative efficacy from dose response; for inhibition at 10 µM: read-out: GTPγS δ-opioid receptor % Inh @10 μM
T3 construct: NG108-15 cell membranes were purchased from Applied Cell Sciences (Rockville, Md.); host or cells: NG108-15 cell membranes

[4] = molecular target: T3, delta opioid receptor; assay: NG108-15, 24-well delta opioid receptor binding assay; conditions: [3H]Naltrindole ligand, NG108-15 cell membranes; read-out: δ-binding NG108 cell membrane Ki
[5] = δ-binding (Naltrindole ligand) Ki, [3H]naltrindole ligand
[6] = read-out: GTPγS δ-opioid receptor EC50
[7] = GTPγS δ-opioid receptor EC50 (μM)
[8] = [3H]naltrindole ligand, read-out: δ-binding (Naltrindole ligand) Ki

T2 sequence (P33535 whole entry): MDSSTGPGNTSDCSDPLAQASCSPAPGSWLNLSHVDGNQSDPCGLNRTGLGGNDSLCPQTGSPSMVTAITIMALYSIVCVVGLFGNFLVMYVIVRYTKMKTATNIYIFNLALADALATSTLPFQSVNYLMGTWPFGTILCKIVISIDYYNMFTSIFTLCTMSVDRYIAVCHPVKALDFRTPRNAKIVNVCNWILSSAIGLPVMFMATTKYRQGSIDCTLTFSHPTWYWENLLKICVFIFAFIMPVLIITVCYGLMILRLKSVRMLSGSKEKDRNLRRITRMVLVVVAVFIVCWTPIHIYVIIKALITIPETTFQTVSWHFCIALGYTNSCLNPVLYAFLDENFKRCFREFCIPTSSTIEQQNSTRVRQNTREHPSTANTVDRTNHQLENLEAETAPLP
T1 sequence (P33533 whole entry): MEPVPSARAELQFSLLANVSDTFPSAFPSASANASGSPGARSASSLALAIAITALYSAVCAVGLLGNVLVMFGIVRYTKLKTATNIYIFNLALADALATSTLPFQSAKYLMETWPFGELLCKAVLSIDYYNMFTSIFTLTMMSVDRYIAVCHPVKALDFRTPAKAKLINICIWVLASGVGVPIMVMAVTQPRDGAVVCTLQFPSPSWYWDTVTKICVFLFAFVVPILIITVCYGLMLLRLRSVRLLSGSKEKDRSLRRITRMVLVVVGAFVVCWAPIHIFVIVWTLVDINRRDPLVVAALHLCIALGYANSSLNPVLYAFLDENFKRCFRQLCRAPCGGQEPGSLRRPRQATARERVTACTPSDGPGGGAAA
T3 sequence (P32300 whole entry): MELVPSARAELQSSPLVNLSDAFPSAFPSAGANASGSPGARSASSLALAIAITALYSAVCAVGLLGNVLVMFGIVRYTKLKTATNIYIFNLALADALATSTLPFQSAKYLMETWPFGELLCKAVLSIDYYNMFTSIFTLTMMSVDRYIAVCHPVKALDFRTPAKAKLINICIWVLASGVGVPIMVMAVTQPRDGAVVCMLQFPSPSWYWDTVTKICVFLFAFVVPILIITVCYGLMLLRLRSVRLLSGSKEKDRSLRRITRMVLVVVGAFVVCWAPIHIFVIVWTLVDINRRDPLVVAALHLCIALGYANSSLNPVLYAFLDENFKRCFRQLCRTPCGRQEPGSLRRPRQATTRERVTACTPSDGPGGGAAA

SMILES | Ki [1, 5] [nM] | Ki ([2]; read-out: μ-binding Ki) [nM] | EC50 [3, 6] [µM] | GTPγS δ-opioid receptor Rel Efficacy [3] | other results
CCOc1ccc(Oc2nc(-c3cncnc3)ncc2NC[C@@H]2CCCN2)cc1 [Cpd 105] | 3 | 421 | 0.146 |  | 
O=C(c1ccc(Oc2nc(-c3cccnc3)ncc2NC[C@@H]2CCCN2)cc1)N1CCCCC1 [Cpd 160, Piperidin-1-yl-(4-{2-pyridin-3-yl-5-[(pyrrolidin-2-(S)-ylmethyl)-amino]-pyrimidin-4-yloxy}-phenyl)-methanone] |  |  |  |  | Ki [4]: 338 nM
CN1CCN(C(=O)c2ccc(Oc3nc(-c4cccnc4)ncc3NC[C@@H]3CCCN3)cc2)CC1 [Cpd 162] |  |  |  |  | Ki [4]: 852 nM
COc1ccc(Oc2nc(-c3ccc4c(c3)OCO4)ncc2NC[C@@H]2CCCN2)cc1 [Cpd 93] | 8 |  |  | 1.115 | Ki ([2]; μ-binding Ki): 554 nM; EC50 [3, 7]: 0.072 µM
O=C(O)c1cccc(Oc2nc(-c3cncc(F)c3)ncc2NC[C@@H]2CCCN2)c1 [Cpd 164] |  |  |  |  | Ki [4]: 2280 nM
COc1ccc(Oc2nc(-c3cncnc3)ncc2NC2CCCNC2)cc1 (centres unmarked) [Cpd 109] | 1 |  |  | 1.102 | Ki ([2]; μ-binding Ki): 522 nM; EC50 [3, 7]: 0.057 µM
CCCOc1ccc(Oc2nc(-c3cncc(C#N)c3)ncc2NC[C@@H]2CCCN2)cc1 [Cpd 113] | 45 |  |  | 1.104 | Ki ([2]; μ-binding Ki): 1430 nM; EC50 [3, 7]: 0.075 µM
CCOc1ccc(Oc2nc(-c3cncc(C#N)c3)ncc2NC[C@@H]2CCCN2)cc1 [Cpd 104] | 8 |  |  | 0.921 | Ki ([2]; μ-binding Ki): 190 nM; EC50 [3, 7]: 0.018 µM
COc1ccc(Oc2nc(-c3ccncc3)ncc2NC[C@@H]2CCCN2)cc1 [Cpd 7] |  | 2170 | 0.436 | 0.912 | Ki [1, 8]: 13 nM; inhibition at 10 µM [3]: 17.1%
COc1ccc(Oc2nc(-c3cncnc3)ncc2NC[C@@H]2C[C@@H](F)CN2)cc1 [Cpd 80] | 2 | 106 | 0.113 |  | 
c1ncc(-c2ncc(NC[C@@H]3CCCN3)c(Oc3ccc4ncsc4c3)n2)cn1 [Cpd 85] | 2 | > 10000 | > 10 |  | 
COc1ccc(Oc2nc(-c3ccc4c(c3)CCO4)ncc2NC[C@@H]2CCCN2)cc1 [Cpd 63] | 37 | 633 | 0.693 |  | 
COc1ccc(Oc2nc(-c3cnc(OC)nc3OC)ncc2NC[C@@H]2CCCN2)cc1 [Cpd 58] | 4 | 640 | 1.51 |  | inhibition at 10 µM [3]: 12.8%
COc1ccc(Oc2nc(-c3ccc(F)c(F)c3)ncc2NC[C@@H]2CCCN2)cc1 [Cpd 56] | 15 | 1940 | 0.536 |  | inhibition at 10 µM [3]: 26.3%
COc1ccc(Oc2nc(-c3ccc(OC)c(F)c3)ncc2NC[C@@H]2CCCN2)cc1 [Cpd 64] | 8 |  |  | 0.830 | Ki ([2]; μ-binding Ki): 466 nM; EC50 [3, 7]: 0.088 µM; inhibition at 10 µM [3]: 12%
COc1ccc(Oc2nc(-c3cncc(C#N)c3)ncc2NC[C@H]2CCCC[C@@H]2N)cc1 [Cpd 299] | 23 | 222 | 0.129 |  | 
CCOc1ncc(-c2ncc(NC[C@@H]3CCCN3)c(Oc3ccc(OC)cc3)n2)cn1 [Cpd 60] | 14 |  |  | 0.926 | Ki ([2]; μ-binding Ki): 1520 nM; EC50 [3, 7]: 0.089 µM; inhibition at 10 µM [3]: 3.73%
COc1ccc(Oc2nc(-c3ccc(O)cc3)ncc2NC[C@@H]2CCCN2)cc1 [Cpd 33] | 29 |  |  |  | Ki ([2]; μ-binding Ki): 29 nM
COc1cccc(Oc2nc(-c3cncc(C#N)c3)ncc2NC[C@@H]2CCCN2)c1 [Cpd 98] | 3 | 102 |  |  | 
c1ccc(Oc2nc(-c3cccnc3)ncc2NC[C@@H]2CCCN2)cc1 [Cpd 14] | 1 | 1730 |  |  | 

SMILES | Ki [1, 5] [nM] | Ki ([2]; read-out: μ-binding Ki) [nM] | EC50 [3, 6] [µM] | GTPγS δ-opioid receptor Rel Efficacy [3] | other results
COc1ccc(Oc2nc(-c3cnn(C)c3)ncc2NC[C@@H]2CCCN2)cc1 [Cpd 67] | 1 | 1560 | 0.194 |  | 
COc1ccc(Oc2nc(-c3ccccc3)ncc2NC[C@@H]2CCCN2)cc1 [Cpd 2] | 33 |  |  | 0.733 | Ki ([1]; δ-binding (DPDPE ligand) Ki, [3H]DPDPE ligand): 20 nM; Ki ([2]; μ-binding Ki): 3140 nM and 3390 nM; EC50 [3, 7]: 0.43 µM and 0.069 µM; inhibition at 10 µM [3]: 5.79%
COc1ccc(Oc2nc(-c3cccc4ncccc34)ncc2NC[C@@H]2CCCN2)cc1 [Cpd 16] | 14 | 1320 |  |  | 
COc1ccc(Oc2nc(-c3cccc4ccccc34)ncc2NC[C@@H]2CCCN2)cc1 [Cpd 5] |  | > 10000 | 0.164 | 0.803 | Ki [1, 8]: 157 nM; inhibition at 10 µM [3]: 18.1%
COc1ccc(Oc2nc(-c3ccc4nccnc4c3)ncc2NC[C@@H]2CCCN2)cc1 [Cpd 76] |  | 333 |  |  | Ki [1, 8]: 111 nM
COc1ccc(Oc2nc(-c3nc4ccccc4s3)ncc2NC[C@@H]2CCCN2)cc1 [Cpd 47] | 6 | 1130 |  |  | 
COc1ccc(Oc2nc(-c3ccc4nonc4c3)ncc2NC[C@@H]2CCCN2)cc1 [Cpd 78] | 75 | 1880 |  |  | 
COc1ccc(Oc2nc(-c3ccc(O)nc3)ncc2NC[C@@H]2CCCN2)cc1 [Cpd 74] | 26 | 1060 | 0.856 |  | inhibition at 10 µM [3]: 2.37%
COc1ccc(Oc2nc(-c3ccnc(SC)n3)ncc2NC[C@@H]2CCCN2)cc1 [Cpd 66, [4-(4-Methoxy-phenoxy)-2′-methylsulfanyl-[2,4]bipyrimidinyl-5-yl]-pyrrolidin-2-(S)-ylmethyl-amine] | 10 | 390 | 0.568 |  | inhibition at 10 µM [3]: 5.77%
COc1ccc(Oc2nc(-c3cccc(S(C)(=O)=O)c3)ncc2NC[C@@H]2CCCN2)cc1 [Cpd 32] | 12.6 |  |  |  | Ki ([2]; μ-binding Ki): 64.1 nM
COc1ccc(Oc2nc(-c3ccn[nH]3)ncc2NC[C@@H]2CCCN2)cc1 [Cpd 61] |  | 3990 |  |  | Ki [1, 8]: 259 nM
COc1ccc(Oc2nc(-c3cccc(OC(F)(F)F)c3)ncc2NC[C@@H]2CCCN2)cc1 [Cpd 51] | 22 | 1030 |  |  | 
COc1ccc(Oc2nc(-c3cnc(C#N)nc3)ncc2NC[C@@H]2CCCN2)cc1 [Cpd 121] | 20 |  |  | 1.010 | Ki ([2]; μ-binding Ki): 379 nM; EC50 [3, 7]: 0.019 µM
N#Cc1cncc(-c2ncc(NC[C@@H]3CCCN3)c(Oc3ccc(OC(F)F)cc3)n2)c1 [Cpd 110] | 33 |  |  | 0.986 | Ki ([2]; μ-binding Ki): 1070 nM; EC50 [3, 7]: 0.081 µM
N#Cc1cncc(-c2ncc(NC[C@@H]3CCCN3)c(Oc3ccc4ncsc4c3)n2)c1 [Cpd 86] | 2 | 1180 | 0.386 |  | 
COc1ccc(Oc2nc(-c3cn[nH]c3)ncc2NC[C@@H]2CCCN2)cc1 [Cpd 65] |  | 555 | 0.339 | 0.824 | Ki [1, 8]: 3 nM
COc1ccc(Oc2nc(-c3cccc(F)c3)ncc2NC[C@@H]2CCCN2)cc1 [Cpd 38] | 1 | 4910 |  |  | 
COc1ccc(Oc2nc(-c3ccc(N)nc3)ncc2NC[C@@H]2CCCN2)cc1 [Cpd 72] |  | 732 | 0.105 | 0.905 | Ki [1, 8]: 2 nM; inhibition at 10 µM [3]: 15.2%
COc1ccc(Oc2nc(-c3noc(=O)[nH]3)ncc2NC[C@@H]2CCCN2)cc1 [Cpd 35, 3-{4-(4-Methoxy-phenoxy)-5-[(pyrrolidin-2-(S)-ylmethyl)-amino]-pyrimidin-2-yl}-4H-[1,2,4]oxadiazol-5-one] |  | 184 |  |  | Ki [1, 8]: 184 nM
Nc1ccc(Oc2nc(-c3cccnc3)ncc2NC[C@@H]2CCCN2)cc1 [Cpd 46] | 27 | 3550 |  |  | 
